{
  "source": "ChEMBL document CHEMBL4190297",
  "about": "“Cafestol, a Bioactive Substance in Coffee, Has Antidiabetic Properties in KKAy Mice” (J Nat Prod, 2017)",
  "key": {"Mus musculus [1]": {"species_on_record": "Mus musculus", "assay": "Antidiabetic activity in KK-Ay diabetic mouse model assessed as mean fasting blood glucose level at 1.1 mg added daily to normal chow pellets for 10 weeks (reference value: 18 +/- 1.2 mmol/L)", "assay_type": "functional"}, "Mus musculus [2]": {"species_on_record": "Mus musculus", "assay": "Antidiabetic activity in KK-Ay diabetic mouse model assessed as non-fasting blood glucose level at 1.1 mg added daily to normal chow pellets for 10 weeks (reference value: 26.2 +/- 1.2 mmol/L)", "assay_type": "functional"}, "Mus musculus [3]": {"species_on_record": "Mus musculus", "assay": "Antidiabetic activity in KK-Ay diabetic mouse model assessed as increase in insulin levels in plasma at 1.1 mg added daily to normal chow pellets for 10 weeks by radioimmunoassay", "assay_type": "functional, organism-based"}, "Mus musculus [4]": {"species_on_record": "Mus musculus", "assay": "Antidiabetic activity in KK-Ay diabetic mouse model assessed as increase in insulin levels in plasma at 0.4 mg added daily to normal chow pellets for 10 weeks by radioimmunoassay", "assay_type": "functional, organism-based"}, "Mus musculus [5]": {"species_on_record": "Mus musculus", "assay": "Antidiabetic activity in KK-Ay diabetic mouse model assessed as increase in HDL levels at 0.4 to 1.1 mg added daily to normal chow pellets for 10 weeks by colorimetric analysis", "assay_type": "functional, organism-based"}, "Mus musculus [6]": {"species_on_record": "Mus musculus", "assay": "Antidiabetic activity in KK-Ay diabetic mouse model assessed as effect on total cholesterol level at 0.14 to 1.1 mg added daily to normal chow pellets for 10 weeks by colorimetric analysis", "assay_type": "functional, organism-based"}, "Mus musculus [7]": {"species_on_record": "Mus musculus", "assay": "Induction of 3.3 mM glucose-stimulated insulin secretion in pancreatic islets isolated from KK-Ay diabetic mouse model at 1.1 mg added daily to normal chow pellets for 10 weeks followed by glucose stimulation of isolated pancreatic islets for 1 hr by radioimmunoassay relative to control", "assay_type": "functional"}, "Mus musculus [8]": {"species_on_record": "Mus musculus", "assay": "Effect on LXRalpha mRNA expression levels in adipose tissue of KK-Ay diabetic mouse model at 0.4 to 1.1 mg added daily to normal chow pellets for 10 weeks by qRT-PCR analysis", "assay_type": "functional, organism-based"}, "Mus musculus [9]": {"species_on_record": "Mus musculus", "assay": "Effect on InsR mRNA expression levels in adipose tissue of KK-Ay diabetic mouse model at 0.4 to 1.1 mg added daily to normal chow pellets for 10 weeks by qRT-PCR analysis", "assay_type": "functional, organism-based"}, "Mus musculus [10]": {"species_on_record": "Mus musculus", "assay": "Effect on Gcgr mRNA expression levels in adipose tissue of KK-Ay diabetic mouse model at 0.4 to 1.1 mg added daily to normal chow pellets for 10 weeks by qRT-PCR analysis", "assay_type": "functional, organism-based"}, "Mus musculus [11]": {"species_on_record": "Mus musculus", "assay": "Effect on G6PD mRNA expression levels in adipose tissue of KK-Ay diabetic mouse model at 0.4 to 1.1 mg added daily to normal chow pellets for 10 weeks by qRT-PCR analysis", "assay_type": "functional, organism-based"}, "Mus musculus [12]": {"species_on_record": "Mus musculus", "assay": "Effect on AMPKalpha2 mRNA expression levels in adipose tissue of KK-Ay diabetic mouse model at 0.4 to 1.1 mg added daily to normal chow pellets for 10 weeks by qRT-PCR analysis", "assay_type": "functional, organism-based"}, "Mus musculus [13]": {"species_on_record": "Mus musculus", "assay": "Effect on 18s rRNA expression levels in adipose tissue of KK-Ay diabetic mouse model at 0.4 to 1.1 mg added daily to normal chow pellets for 10 weeks by qRT-PCR analysis", "assay_type": "functional, organism-based"}, "Mus musculus [14]": {"species_on_record": "Mus musculus", "assay": "Effect on SOD1 mRNA expression levels in muscle of KK-Ay diabetic mouse model at 0.4 to 1.1 mg added daily to normal chow pellets for 10 weeks by qRT-PCR analysis", "assay_type": "functional, organism-based"}, "Mus musculus [15]": {"species_on_record": "Mus musculus", "assay": "Effect on PPARalpha mRNA expression levels in muscle of KK-Ay diabetic mouse model at 0.4 to 1.1 mg added daily to normal chow pellets for 10 weeks by qRT-PCR analysis", "assay_type": "functional, organism-based"}, "Mus musculus [16]": {"species_on_record": "Mus musculus", "assay": "Effect on Pi3K mRNA expression levels in muscle of KK-Ay diabetic mouse model at 0.4 to 1.1 mg added daily to normal chow pellets for 10 weeks by qRT-PCR analysis", "assay_type": "functional, organism-based"}, "Mus musculus [17]": {"species_on_record": "Mus musculus", "assay": "Effect on LXRalpha mRNA expression levels in muscle of KK-Ay diabetic mouse model at 0.4 to 1.1 mg added daily to normal chow pellets for 10 weeks by qRT-PCR analysis", "assay_type": "functional, organism-based"}, "Mus musculus [18]": {"species_on_record": "Mus musculus", "assay": "Effect on JNK1 mRNA expression levels in muscle of KK-Ay diabetic mouse model at 0.4 to 1.1 mg added daily to normal chow pellets for 10 weeks by qRT-PCR analysis", "assay_type": "functional, organism-based"}, "Mus musculus [19]": {"species_on_record": "Mus musculus", "assay": "Effect on InsR mRNA expression levels in muscle of KK-Ay diabetic mouse model at 0.4 to 1.1 mg added daily to normal chow pellets for 10 weeks by qRT-PCR analysis", "assay_type": "functional, organism-based"}, "Mus musculus [20]": {"species_on_record": "Mus musculus", "assay": "Effect on GYS2 mRNA expression levels in muscle of KK-Ay diabetic mouse model at 0.4 to 1.1 mg added daily to normal chow pellets for 10 weeks by qRT-PCR analysis", "assay_type": "functional, organism-based"}, "Mus musculus [21]": {"species_on_record": "Mus musculus", "assay": "Effect on GLUT2 mRNA expression levels in muscle of KK-Ay diabetic mouse model at 0.4 to 1.1 mg added daily to normal chow pellets for 10 weeks by qRT-PCR analysis", "assay_type": "functional, organism-based"}, "Mus musculus [22]": {"species_on_record": "Mus musculus", "assay": "Effect on Gcgr mRNA expression levels in muscle of KK-Ay diabetic mouse model at 0.4 to 1.1 mg added daily to normal chow pellets for 10 weeks by qRT-PCR analysis", "assay_type": "functional, organism-based"}, "Mus musculus [23]": {"species_on_record": "Mus musculus", "assay": "Effect on Adipor1 mRNA expression levels in muscle of KK-Ay diabetic mouse model at 0.4 to 1.1 mg added daily to normal chow pellets for 10 weeks by qRT-PCR analysis", "assay_type": "functional, organism-based"}, "Mus musculus [24]": {"species_on_record": "Mus musculus", "assay": "Effect on 18s rRNA expression levels in muscle of KK-Ay diabetic mouse model at 0.4 to 1.1 mg added daily to normal chow pellets for 10 weeks by qRT-PCR analysis", "assay_type": "functional, organism-based"}, "Mus musculus [25]": {"species_on_record": "Mus musculus", "assay": "Effect on PPARgamma mRNA expression levels in liver of KK-Ay diabetic mouse model at 0.4 to 1.1 mg added daily to normal chow pellets for 10 weeks by qRT-PCR analysis", "assay_type": "functional, organism-based"}, "Mus musculus [26]": {"species_on_record": "Mus musculus", "assay": "Effect on Pi3K mRNA expression levels in liver of KK-Ay diabetic mouse model at 0.4 to 1.1 mg added daily to normal chow pellets for 10 weeks by qRT-PCR analysis", "assay_type": "functional, organism-based"}, "Mus musculus [27]": {"species_on_record": "Mus musculus", "assay": "Effect on IRS2 mRNA expression levels in liver of KK-Ay diabetic mouse model at 0.4 to 1.1 mg added daily to normal chow pellets for 10 weeks by qRT-PCR analysis", "assay_type": "functional, organism-based"}, "Mus musculus [28]": {"species_on_record": "Mus musculus", "assay": "Toxicity in KK-Ay diabetic mouse model assessed as effect on body weight at 1.1 mg added daily to normal chow pellets for 4 weeks", "assay_type": "organism-based", "details": "in vivo, po, 672 h"}, "Mus musculus [29]": {"species_on_record": "Mus musculus", "assay": "Effect on Gcgr mRNA expression levels in liver of KK-Ay diabetic mouse model at 0.4 to 1.1 mg added daily to normal chow pellets for 10 weeks by qRT-PCR analysis", "assay_type": "functional, organism-based"}, "Mus musculus [30]": {"species_on_record": "Mus musculus", "assay": "Effect on 18s rRNA expression levels in liver of KK-Ay diabetic mouse model at 0.4 to 1.1 mg added daily to normal chow pellets for 10 weeks by qRT-PCR analysis", "assay_type": "functional, organism-based"}, "Mus musculus [31]": {"species_on_record": "Mus musculus", "assay": "Effect on triglyceride concentration in liver of KK-Ay diabetic mouse model at 0.4 to 1.1 mg added daily to normal chow pellets for 10 weeks", "assay_type": "functional, organism-based"}, "Mus musculus [32]": {"species_on_record": "Mus musculus", "assay": "Effect on Pi3K mRNA expression levels in adipose tissue of KK-Ay diabetic mouse model at 0.4 to 1.1 mg added daily to normal chow pellets for 10 weeks by qRT-PCR analysis", "assay_type": "functional, organism-based"}, "Mus musculus [33]": {"species_on_record": "Mus musculus", "assay": "Effect on Sirt1 mRNA expression levels in adipose tissue of KK-Ay diabetic mouse model at 0.4 to 1.1 mg added daily to normal chow pellets for 10 weeks by qRT-PCR analysis", "assay_type": "functional, organism-based"}},
  "note": "Activity calls are given as the source filed them. No cut-off for these calls is given here.",
  "data": [
    {"smiles": "C[C@@]12CCc3occc3[C@H]1CC[C@@]13C[C@H](CC[C@H]12)[C@@](O)(CO)C3", "values": [
      {"measurement": "Activity", "setting": "Mus musculus [1]", "result": 12.9, "unit": "mmol/L"},
      {"measurement": "Activity", "setting": "Mus musculus [2]", "result": 19.7, "unit": "mmol/L"},
      {"measurement": "Activity", "setting": "Mus musculus [3]", "result": "inactive"},
      {"measurement": "Activity", "setting": "Mus musculus [4]", "result": "inactive"},
      {"measurement": "Activity", "setting": "Mus musculus [5]", "result": "inactive"},
      {"measurement": "Activity", "setting": "Mus musculus [6]", "result": "inactive"},
      {"measurement": "Activity", "setting": "Mus musculus [7]", "result": 44, "unit": "%"},
      {"measurement": "Activity", "setting": "Mus musculus [8]", "result": "inactive"},
      {"measurement": "Activity", "setting": "Mus musculus [9]", "result": "inactive"},
      {"measurement": "Activity", "setting": "Mus musculus [10]", "result": "inactive"},
      {"measurement": "Activity", "setting": "Mus musculus [11]", "result": "inactive"},
      {"measurement": "Activity", "setting": "Mus musculus [12]", "result": "inactive"},
      {"measurement": "Activity", "setting": "Mus musculus [13]", "result": "inactive"},
      {"measurement": "Activity", "setting": "Mus musculus [14]", "result": "inactive"},
      {"measurement": "Activity", "setting": "Mus musculus [15]", "result": "inactive"},
      {"measurement": "Activity", "setting": "Mus musculus [16]", "result": "inactive"},
      {"measurement": "Activity", "setting": "Mus musculus [17]", "result": "inactive"},
      {"measurement": "Activity", "setting": "Mus musculus [18]", "result": "inactive"},
      {"measurement": "Activity", "setting": "Mus musculus [19]", "result": "inactive"},
      {"measurement": "Activity", "setting": "Mus musculus [20]", "result": "inactive"},
      {"measurement": "Activity", "setting": "Mus musculus [21]", "result": "inactive"},
      {"measurement": "Activity", "setting": "Mus musculus [22]", "result": "inactive"},
      {"measurement": "Activity", "setting": "Mus musculus [23]", "result": "inactive"},
      {"measurement": "Activity", "setting": "Mus musculus [24]", "result": "inactive"},
      {"measurement": "Activity", "setting": "Mus musculus [25]", "result": "inactive"},
      {"measurement": "Activity", "setting": "Mus musculus [26]", "result": "inactive"},
      {"measurement": "Activity", "setting": "Mus musculus [27]", "result": "inactive"},
      {"measurement": "Activity", "setting": "Mus musculus [28]", "result": "Non-Toxic"},
      {"measurement": "Activity", "setting": "Mus musculus [29]", "result": "inactive"},
      {"measurement": "Activity", "setting": "Mus musculus [30]", "result": "inactive"},
      {"measurement": "Activity", "setting": "Mus musculus [31]", "result": "inactive"},
      {"measurement": "Activity", "setting": "Mus musculus [32]", "result": "inactive"},
      {"measurement": "Activity", "setting": "Mus musculus [33]", "result": "inactive"}
    ]}
  ]
}
